Results on 5 molecules are retold here after article PMC8546889 (Acta Pharmaceutica Sinica. B, 2021).

Data set [1] has as its system HT-29 cells. As to the kind of experiment: Anti-necroptosis activity assay. It counts as cell-based, human. The settings on record: for EC50: Homo sapiens, HT-29, read-out: Anti-necroptosis (EC50); for anti-necroptosis activity improvement compared with TAK-632: EC50 ratio versus TAK-632.
For data set [2], the target named is T1, RIP1 (Homo sapiens, UniProt Q13546).
T1 sequence (Q13546 1-671): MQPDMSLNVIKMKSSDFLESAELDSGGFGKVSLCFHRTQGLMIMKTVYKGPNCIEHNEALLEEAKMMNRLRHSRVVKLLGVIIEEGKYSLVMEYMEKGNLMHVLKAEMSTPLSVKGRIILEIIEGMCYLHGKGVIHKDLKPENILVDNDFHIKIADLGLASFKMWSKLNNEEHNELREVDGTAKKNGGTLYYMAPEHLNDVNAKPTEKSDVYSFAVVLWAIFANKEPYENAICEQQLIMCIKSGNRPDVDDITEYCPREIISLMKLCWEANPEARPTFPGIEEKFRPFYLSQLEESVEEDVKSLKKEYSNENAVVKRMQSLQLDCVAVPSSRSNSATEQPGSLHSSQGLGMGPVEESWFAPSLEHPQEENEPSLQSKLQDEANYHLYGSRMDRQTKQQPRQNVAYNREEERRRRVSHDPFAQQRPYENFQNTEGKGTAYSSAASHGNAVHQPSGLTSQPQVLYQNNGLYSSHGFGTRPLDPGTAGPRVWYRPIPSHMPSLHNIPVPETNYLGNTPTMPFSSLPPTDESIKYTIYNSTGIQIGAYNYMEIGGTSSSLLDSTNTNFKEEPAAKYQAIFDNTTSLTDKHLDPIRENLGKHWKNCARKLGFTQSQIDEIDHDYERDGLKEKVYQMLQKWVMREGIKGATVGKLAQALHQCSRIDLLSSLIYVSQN
As to the kind of experiment: KINOMEscan kinase binding assay, RIP1. Particulars: for RIP1 selectivity: RIP1 over RIP3 (Kd ratio).

Data set [3] addresses T2, RIP3 (Homo sapiens, UniProt Q9Y572). In words: KINOMEscan kinase binding assay, RIP3.
A further data set is described as follows: Cytotoxicity. It counts as cell-based.
The target of another data set is T3, RIP1-RIP3 necrosome (Homo sapiens, UniProt Q13546).
T3 sequence (Q13546 1-671): T1 sequence (Q13546 1-671)
As to the kind of experiment: Immunoprecipitation of RIP1-RIP3 necrosome. The settings on record: HT-29 cells, 1 μmol/L, 6 h.

The subject of data set [4] is C57BL/6 J mice. As to the kind of experiment: TNF-α-induced systemic inflammatory response syndrome. Particulars: for survival rate of SIRS mice: over 60 h.
The test system of another data set is healthy mice. As to the kind of experiment: Single-dose acute oral toxicity test. Format: in vivo.
Data set [5] has as its system HT-29 cells. As to the kind of experiment: TCZ-induced necroptosis in HT-29 cells. Format: cell-based, human. Particulars: TCZ 24 h.
Another data set concerns L929 cells. As to the kind of experiment: TZ-induced necroptosis in L929 cells. The settings on record: mTNF-α and Z-VAD-FMK (TZ), 9 h.
Data set [6] relates to HT-29 cells. In words: Apoptosis model induced by TC or TS in HT-29 cells. It counts as cell-based, human. The settings on record: different concentrations.
Data set [7] has as its target T1, RIP1. In words: Drug affinity responsive target stability assay. The settings on record: 50 μmol/L, HT-29 cell lysates, 0.1% Pronase 30 min.
Data set [8] relates to C57BL/6 J mice. In words: DSS-induced UC model. It counts as in vivo.
The subject of data set [9] is phosphorylation of RIP1, RIP3, and MLKL. In words: Immunoblotting of necroptosis pathway phosphorylation in TSZ-induced HT-29 cells. It counts as cell-based, human. Particulars: 1 μmol/L. For orientation: Immunoblotting shows a protein as a band on a membrane.
Another data set in a line: PK study in mice. It counts as in vivo. The settings on record: male, ICR, mouse, plasma; for AUC: mice.
Data set [10] has as its target T2, RIP3. As to the kind of experiment: Drug affinity responsive target stability assay. Particulars: 50 μmol/L, HT-29 cell lysates, 0.1% Pronase 30 min.
For data set [11] the following is noted: read-out: Cytotoxicity (CC50); cited from earlier work.

The EC50 is the concentration that produces a half-maximal response. The Kd is the constant that tells how readily two partners part at equilibrium. A high value points to lower affinity. One may read the CC50 as the concentration that lowers cell viability or growth by half. What is called MRT inf is a mean duration of stay, worked out from the concentration-time curve. One may read the Vd as the apparent volume that relates the amount in the body to the concentration in plasma or blood. Read a high Vd as wide distribution into tissue. One may read the clearance as the rate of elimination divided by the concentration. By half-life is commonly meant the time in which the quantity being followed falls by half. Low readings indicate rapid decline, high ones slow decline. One may read the AUC as concentration integrated over time. Low readings indicate less exposure, high ones more exposure. What is called Cmax is the highest concentration seen after dosing. For orientation: Tmax means the time at which the peak concentration occurs. As a reminder, the bioavailability is dose-corrected exposure relative to a reference, in per cent. Low readings indicate little systemic uptake, high ones much systemic uptake.

SMILES strings stand for the structures. Where two headings read alike, the source gives them in different places.

T2 sequence (Q9Y572 whole entry): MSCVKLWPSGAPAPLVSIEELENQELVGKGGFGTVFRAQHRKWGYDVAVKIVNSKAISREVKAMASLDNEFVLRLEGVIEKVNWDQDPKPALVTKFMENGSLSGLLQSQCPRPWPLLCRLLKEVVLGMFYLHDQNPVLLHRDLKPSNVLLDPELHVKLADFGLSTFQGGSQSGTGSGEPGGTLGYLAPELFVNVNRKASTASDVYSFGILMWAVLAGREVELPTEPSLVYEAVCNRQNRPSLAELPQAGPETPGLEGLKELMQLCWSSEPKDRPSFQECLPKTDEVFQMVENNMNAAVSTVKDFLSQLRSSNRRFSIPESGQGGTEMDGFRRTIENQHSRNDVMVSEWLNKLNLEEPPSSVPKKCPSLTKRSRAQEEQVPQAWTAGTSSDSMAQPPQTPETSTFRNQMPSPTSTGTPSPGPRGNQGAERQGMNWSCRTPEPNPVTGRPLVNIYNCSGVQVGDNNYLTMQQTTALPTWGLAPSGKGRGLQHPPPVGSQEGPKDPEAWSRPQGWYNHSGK

For the molecule `O=C(Cc1cccc(C(F)(F)F)c1)Nc1cc(Oc2ccc3nc(NC(=O)C4CC4)sc3c2[N+](=O)[O-])ccc1F` [Compound 9], the 50% effective concentration (EC50) with HT-29 cells [1] was determined as 480 ± 10 nM. At RIP1 [2], binding was characterised by a dissociation constant (Kd) of 710 nM and the RIP1 selectivity was determined as 0.37. This molecule displayed a dissociation constant Kd at RIP3 [3] of 260 nM. Moreover, in “Cytotoxicity”, the half-maximal cytotoxic concentration (CC50) was > 50000 nM.

Consider `CC(=O)c1c(Oc2ccc(F)c(NC(=O)Cc3cccc(C(F)(F)F)c3)c2)ccc2nc(NC(=O)C3CC3)sc12` [Compound 10], for which, in the data set with HT-29 cells [1], the “anti-necroptosis activity improvement compared with TAK-632” value is on record as “more than 10 fold” and the EC50 was 130 ± 60 nM. At RIP1 [2], the dissociation constant Kd was 880 nM and the RIP1 selectivity was 0.37. For the same molecule, the dissociation constant (Kd) at RIP3 [3] amounted to 330 nM. Also, the CC50 in the data set “Cytotoxicity” is > 50000 nM.

With `O=C(Cc1cccc(C(F)(F)F)c1)Nc1cc(Oc2cc3sc(NC(=O)C4CC4)nc3cc2F)ccc1F` [Compound 25, N-(5-Fluoro-6-(4-fluoro-3-(2-(3-(trifluoromethyl)phenyl)acetamido)phenoxy)benzo[d]thiazol-2-yl)cyclopropanecarboxamide], the TSZ-induced necrosome formation result on RIP1-RIP3 necrosome was “completely blocked”. Further, the “anti-necroptosis potency improvement compared with SZM-594” value with HT-29 cells [1] (EC50 ratio versus SZM-594) is listed as 21 fold. For the same molecule, in the data set with HT-29 cells [1], the “anti-necroptosis activity improvement compared with TAK-632” value came out at 180 fold and the 50% effective concentration (EC50) was found to be 8 ± 1 nM. For the same molecule, the “inhibition of necroptosis induced by TSZ” value in the data set on HT-29 cells [1] (HT-29 cells, TSZ 12 h) was “dose-dependently inhibit necroptosis”. For the same molecule, the “body temperature loss in SIRS mice” value in the data set with C57BL/6 J mice [4] (10 or 20 mg/kg intragastric, first 2–3 h after mTNF-α/Z-VAD-FMK) is listed as “protected mice from body temperature loss”. In addition, in the data set with C57BL/6 J mice [4] (single dose 10 mg/kg), the “survival rate of SIRS mice” value is 60%. Moreover, the “survival rate of SIRS mice” value with C57BL/6 J mice [4] (single dose 20 mg/kg) amounted to 100%. Besides, the “death after single oral dose” value with healthy mice (5 g/kg intragastric, 2 weeks, male and female mice) is “no death occurred”. Also, in the data set with healthy mice (5 g/kg, 14-day period), the acute tolerability result is recorded as “well tolerated”. Besides, the “inhibition of necroptosis induced by TCZ” value in the data set on HT-29 cells [5] is “dose-dependently inhibit necroptosis”. Besides, the “attenuation of necroptosis in L929 cells” value with L929 cells is recorded as “dose-dependently attenuated necroptosis”. In addition, the “protective effects in the apoptosis model” value in the data set on HT-29 cells [6] is listed as “did not show any protective effects”. Besides, at RIP1 [7], the “DARTS protection of RIP1 from protease digestion” value is “protected from protease digestion”. Moreover, the colon length result in the data set with C57BL/6 J mice [8] (20 mg/kg, Day 13, P < 0.01 versus untreated colitis mice) was “longer colon length”. In addition, the “alleviation of body weight in UC mice” value with C57BL/6 J mice [8] (10 or 20 mg/kg intragastric, from Day 11) was “significantly dose-responsed speeded up”. In addition, the “phosphorylation of RIP1, RIP3 and MLKL in colon tissue” value with C57BL/6 J mice [8] (Western blot, TUNEL) is “reducing the phosphorylation”. The “mRNA of inflammatory cytokines (Il-6 and Il-1β) and chemokine receptors (Ccr-2 and Ccr-5)” value in the data set with C57BL/6 J mice [8] (colon tissue, qPCR) was “significantly reduced”. In addition, in the data set on C57BL/6 J mice [8] (dose–response manner), the “protein expressions of IL-6 and IL-1β in colon tissue” value is listed as “inhibited the protein expressions”. The “level of FITC-dextran in the serum” value with C57BL/6 J mice [8] (intestinal permeability, versus DSS-disease mice) is “significantly lower”. Also, in data set [9], the “downstream phosphorylation of MLKL” value was “completely inhibited”. For the same molecule, the “phosphorylation of RIP1 and RIP3” value in data set [9] (within 6 h) is on record as “completely inhibit”. The “activity toward RIP3” value on RIP3 [3] (even at 5000 nmol/L) is reported as “no apparent activity”. In “PK study in mice” (iv, 1 mg/kg), this molecule gave an MRT inf of 1.59 ± 0.43 h, a Vd of 1670 ± 856 L/kg, a clearance of 16.8 ± 4.8 mL/min/kg and a half-life of 1.67 ± 0.46 h. This molecule also came in with an AUC in “PK study in mice” (iv, 1 mg/kg, AUC0‒t, 1 mg/kg i.v.) of 1030 ± 350 ng·h/mL. Moreover, the AUC in the data set “PK study in mice” (iv, 1 mg/kg, AUC0‒∞, 1 mg/kg i.v.) amounted to 1060 ± 354 ng·h/mL. In addition, in the data set “PK study in mice” (po, 10 mg/kg), the Cmax stood at 381 ± 35 ng/mL, the mean residence time (MRT inf) was 2.74 ± 0.32 h, the time of peak concentration (Tmax) was determined as 0.67 ± 0.29 h and the bioavailability is 9.69 ± 2.31%. Moreover, the half-life in “PK study in mice” (po, 10 mg/kg) is 1.18 ± 0.62 h. In the data set “PK study in mice” (po, 10 mg/kg, AUC0‒t, 10 mg/kg p.o.), this molecule yielded an AUC of 991 ± 218 ng·h/mL. For the same molecule, in “PK study in mice” (po, 10 mg/kg, AUC0‒∞, 10 mg/kg p.o.), the AUC is 1030 ± 245 ng·h/mL. At RIP3 [10], the “DARTS detection of RIP3 after protease digestion” value is given as “not detected”. In addition, the CC50 in the data set “Cytotoxicity” is > 50000 nM.

As to `N#Cc1c(Oc2ccc(F)c(NC(=O)Cc3cccc(C(F)(F)F)c3)c2)ccc2nc(NC(=O)C3CC3)sc12` [Compound 5, N-(7-Cyano-6-(4-fluoro-3-(2-(3-(trifluoromethyl)phenyl)acetamido)phenoxy)benzo[d]thiazol-2-yl)cyclopropanecarboxamide], in data set [11], the cytotoxic concentration (CC50) was > 50000 nM.

As for `N#Cc1cc(Oc2ccc(F)c(NC(=O)Cc3cccc(C(F)(F)F)c3)c2)cc2sc(NC(=O)C3CC3)nc12` [Compound 15], the EC50 with HT-29 cells [1] was > 10000 nM. Besides, the anti-necroptosis activity entry in the data set on HT-29 cells [1] (at 10 μmol/L) is “completely eliminated the activity”.
